Columns and labels:
[1] = test system: acetylation of alpha-tubulin in NCI-H460 NSCLC cells; test: Western blot with densitometry, tubulin acetylation; type: cell-based, human; conditions: for Acetyl tub./tubulin: NCI-H460, vehicle 0,341
Protocol: For assessing the in vitro effect of ST7612AA1 on acetylation of α-tubulin and histones, NSCLC cells were treated with the test compound at various concentrations (dose-response curve). SAHA 5 μM was used as reference inhibitor. Protein extraction, separation and immunoblotting were performed as previously described. Immunoreactive bands were finally subjected to densitometry analysis by a phosphoimaging system (STORM, Molecular Dynamics), and then the IC50 values were calculated by the “ALLFIT” computer program. The antibodies used are listed in Supplementary Table 2.

Breast cancer MCF-7 = test: In vitro proliferation assay; type: cell-based; conditions: Homo sapiens, MCF7, 72 h, mean ± S.E.M.
Protocol: (§1) Anti-proliferative activity was first assessed on a panel of cell lines derived from solid tumors and hematological cancers and then on a large panel of cell lines derived from mature B-cell lymphomas. […] Lymphoma cells were seeded in 96-wells tissue culture plates in complete medium and were exposed to increasing concentrations of ST7612AA1 for 48 or 72 h; the anti-proliferative activity was assessed using 3-(4,5-dimethylthiazol-2-yl)-2,5-diphenyltetrazolium bromide (MTT). The drug potency was evaluated by means of the “ALLFIT” computer program and defined as IC50 (drug concentration required for 50% inhibition of cell survival).

NSCLC NCI-H1975 = test: In vitro proliferation assay (sulphorodamine B); type: cell-based; conditions: Homo sapiens, 72 h, mean ± S.E.M.
[2] = test system: Chronic myeloid leukemia K562; test: In vitro proliferation assay (sulphorodamine B); type: cell-based; conditions: Homo sapiens, 72 h, mean ± S.E.M.
[3] = test system: cell lines derived from epithelial cancers (lung, breast, colon, ovarian) and from leukemias and lymphomas; test: In vitro proliferation assay, first broad panel (summary); type: cell-based; conditions: first broad panel of human tumor cell lines; read-out: IC50 values, range over the panel
Protocol: as §1

[4] = test system: DOHH2 and TMD8 DLBCL cells; test: Gene Set Enrichment Analysis (GSEA) of gene expression profiles, ST7612AA1 300 nM 8 hrs; type: cell-based, human
[5] = C2.CP.CGP, down-regulated genes
[6] = C2.CP.KEGG, down-regulated genes
[7] = C2.CP.REACTOME, down-regulated genes
[8] = GSEA.C2.CP.BIOCARTA, up-regulated genes
[9] = GSEA.C2.CP.CGP, up-regulated genes
[10] = GSEA.C2.CP.KEGG, up-regulated genes
[11] = GSEA.C2.CP.REACTOME, up-regulated genes
[12] = GSEA.C3.TFT, in both sheets (down- and up-regulated)
[13] = SignatureDB, down-regulated genes
[14] = SignatureDB, up-regulated genes

SMILES: CC(=O)SCCCCC[C@H](NC(=O)[C@H]1CCC(=O)N1)C(=O)Nc1ccccc1 [ST7612AA1]
- Acetyl tub./tubulin ([1]; 0,2 µM): 1,181
- Acetyl tub./tubulin ([1]; 0,04 µM): 0,649
- Acetyl tub./tubulin ([1]; 1 µM): 2,012
- Acetyl tub./tubulin ([1]; 0,008 µM): 0,588
- IC50 ([1]; Homo sapiens, NCI-H460, 3 h exposure, Western blot densitometry, read-out: IC50 for increasing the acetylation of tubulin): 200 nM
- IC50 (Breast cancer MCF-7): 190 nM
- IC50 (NSCLC NCI-H1975): 500 nM
- IC50 [2]: 190 ± 20 nM
- IC50 [3]: 43 to 500 nM
- NES GARY_CD5_TARGETS_DN [4, 5]: -2.075
- NES HELLER_HDAC_TARGETS_DN [4, 5]: -2.119
- NES MANALO_HYPOXIA_DN [4, 5]: -2.295
- NES PEART_HDAC_PROLIFERATION_CLUSTER_DN [4, 5]: -2.218
- NES PENG_GLUTAMINE_DEPRIVATION_DN [4, 5]: -2.059
- NES SCHLOSSER_MYC_TARGETS_AND_SERUM_RESPONSE_DN [4, 5]: -2.302
- NES SCHLOSSER_MYC_TARGETS_AND_SERUM_RESPONSE_UP [4, 5]: -2.093
- NES SCHLOSSER_MYC_TARGETS_REPRESSED_BY_SERUM [4, 5]: -2.287
- NES SCHUHMACHER_MYC_TARGETS_UP [4, 5]: -2.188
- NES ZHONG_RESPONSE_TO_AZACITIDINE_AND_TSA_DN [4, 5]: -2.061
- NES KEGG_AMINOACYL_TRNA_BIOSYNTHESIS [4, 6]: -2
- NES KEGG_BASE_EXCISION_REPAIR [4, 6]: -1.385
- NES KEGG_CELL_CYCLE [4, 6]: -1.433
- NES KEGG_N_GLYCAN_BIOSYNTHESIS [4, 6]: -1.4288
- NES KEGG_ONE_CARBON_POOL_BY_FOLATE [4, 6]: -1.545
- NES KEGG_PROTEASOME [4, 6]: -1.717
- NES KEGG_PYRIMIDINE_METABOLISM [4, 6]: -1.58
- NES KEGG_RENIN_ANGIOTENSIN_SYSTEM [4, 6]: -1.474
- NES KEGG_RNA_DEGRADATION [4, 6]: -1.656
- NES KEGG_SPLICEOSOME [4, 6]: -1.947
- NES REACTOME_ASSEMBLY_OF_THE_PRE_REPLICATIVE_COMPLEX [4, 7]: -1.875
- NES REACTOME_DEADENYLATION_DEPENDENT_MRNA_DECAY [4, 7]: -1.915
- NES REACTOME_METABOLISM_OF_NON_CODING_RNA [4, 7]: -2.068
- NES REACTOME_METABOLISM_OF_RNA [4, 7]: -1.941
- NES REACTOME_MITOCHONDRIAL_PROTEIN_IMPORT [4, 7]: -1.944
- NES REACTOME_MRNA_PROCESSING [4, 7]: -1.945
- NES REACTOME_MRNA_SPLICING [4, 7]: -2.002
- NES REACTOME_PROCESSING_OF_CAPPED_INTRON_CONTAINING_PRE_MRNA [4, 7]: -2.059
- NES REACTOME_REGULATION_OF_MITOTIC_CELL_CYCLE [4, 7]: -1.812
- NES REACTOME_TRNA_AMINOACYLATION [4, 7]: -1.958
- NES BIOCARTA_ARAP_PATHWAY [4, 8]: 1.7296
- NES BIOCARTA_CCR5_PATHWAY [4, 8]: 1.628
- NES BIOCARTA_COMP_PATHWAY [4, 8]: 1.713
- NES BERTUCCI_MEDULLARY_VS_DUCTAL_BREAST_CANCER_DN [4, 9]: 2.239
- NES CHEN_LVAD_SUPPORT_OF_FAILING_HEART_UP [4, 9]: 2.236
- NES DUTERTRE_ESTRADIOL_RESPONSE_24HR_DN [4, 9]: 2.118
- NES GALINDO_IMMUNE_RESPONSE_TO_ENTEROTOXIN [4, 9]: 2.132
- NES GAUSSMANN_MLL_AF4_FUSION_TARGETS_E_UP [4, 9]: 2.11
- NES HELLER_HDAC_TARGETS_SILENCED_BY_METHYLATION_UP [4, 9]: 2.6813
- NES HELLER_HDAC_TARGETS_UP [4, 9]: 2.622
- NES KINSEY_TARGETS_OF_EWSR1_FLII_FUSION_DN [4, 9]: 2.138
- NES PEART_HDAC_PROLIFERATION_CLUSTER_UP [4, 9]: 2.166
- NES ZHONG_RESPONSE_TO_AZACITIDINE_AND_TSA_UP [4, 9]: 2.29
- NES KEGG_ASTHMA [4, 10]: 1.8598
- NES KEGG_AXON_GUIDANCE [4, 10]: 1.813
- NES KEGG_CELL_ADHESION_MOLECULES_CAMS [4, 10]: 1.93
- NES KEGG_ENDOCYTOSIS [4, 10]: 1.748
- NES KEGG_EPITHELIAL_CELL_SIGNALING_IN_HELICOBACTER_PYLORI_INFECTION [4, 10]: 1.747
- NES KEGG_FOCAL_ADHESION [4, 10]: 1.8042
- NES KEGG_LEUKOCYTE_TRANSENDOTHELIAL_MIGRATION [4, 10]: 1.726
- NES KEGG_LYSOSOME [4, 10]: 1.886
- NES KEGG_SYSTEMIC_LUPUS_ERYTHEMATOSUS [4, 10]: 2.269
- NES KEGG_VIBRIO_CHOLERAE_INFECTION [4, 10]: 1.733
- NES REACTOME_AMYLOIDS [4, 11]: 2.248
- NES REACTOME_CELL_CELL_JUNCTION_ORGANIZATION [4, 11]: 1.864
- NES REACTOME_DEPOSITION_OF_NEW_CENPA_CONTAINING_NUCLEOSOMES_AT_THE_CENTROMERE [4, 11]: 1.861
- NES REACTOME_MEIOSIS [4, 11]: 1.9137
- NES REACTOME_MEIOTIC_RECOMBINATION [4, 11]: 2.082
- NES REACTOME_MEIOTIC_SYNAPSIS [4, 11]: 1.86
- NES REACTOME_PACKAGING_OF_TELOMERE_ENDS [4, 11]: 2.135
- NES REACTOME_RNA_POL_I_PROMOTER_OPENING [4, 11]: 2.137
- NES REACTOME_RNA_POL_I_TRANSCRIPTION [4, 11]: 1.892
- NES REACTOME_TELOMERE_MAINTENANCE [4, 11]: 1.906
- NES TTTNNANAGCYR_UNKNOWN [4, 12]: 1.939
- NES V$CEBP_Q2 [4, 12]: 1.715
- NES V$CEBP_Q2_01 [4, 12]: 1.7492
- NES V$CREBP1_01 [4, 12]: 1.784
- NES V$E4BP4_01 [4, 12]: 1.766
- NES V$GATA_Q6 [4, 12]: 1.724
- NES V$HLF_01 [4, 12]: 1.724
- NES V$MYOGENIN_Q6 [4, 12]: 1.714
- NES V$OCT1_B [4, 12]: 1.782
- NES […]_UNKNOWN [4, 12]: 2.04
- NES CSR_EARLY_UP.V1_UP ([4]; GSEA.C6, down-regulated genes): -1.379
- NES EIF4E_UP ([4]; GSEA.C6, down-regulated genes): -1.468
- NES ERB2_UP.V1_DN ([4]; GSEA.C6, down-regulated genes): -1.443
- NES ESC_J1_UP_LATE.V1_DN ([4]; GSEA.C6, down-regulated genes): -1.204
- NES GCNP_SHH_UP_EARLY.V1_UP ([4]; GSEA.C6, down-regulated genes): -1.491
- NES GCNP_SHH_UP_LATE.V1_UP ([4]; GSEA.C6, down-regulated genes): -1.454
- NES MEK_UP.V1_DN ([4]; GSEA.C6, down-regulated genes): -1.169
- NES MYC_UP.V1_UP ([4]; GSEA.C6, down-regulated genes): -2.19
- NES VEGF_A_UP.V1_DN ([4]; GSEA.C6, down-regulated genes): -1.363
- NES BCAT.100_UP.V1_UP ([4]; GSEA.C6, up-regulated genes): 1.912
- NES CAHOY_NEURONAL ([4]; GSEA.C6, up-regulated genes): 1.833
- NES E2F3_UP.V1_UP ([4]; GSEA.C6, up-regulated genes): 1.833
- NES ERB2_UP.V1_UP ([4]; GSEA.C6, up-regulated genes): 2.065
- NES ESC_V6.5_UP_LATE.V1_UP ([4]; GSEA.C6, up-regulated genes): 1.857
- NES MEK_UP.V1_UP ([4]; GSEA.C6, up-regulated genes): 2.011
- NES P53_DN.V1_UP ([4]; GSEA.C6, up-regulated genes): 1.814
- NES RAF_UP.V1_UP ([4]; GSEA.C6, up-regulated genes): 1.891
- NES STK33_SKM_UP ([4]; GSEA.C6, up-regulated genes): 1.998
- NES STK33_UP ([4]; GSEA.C6, up-regulated genes): 1.832
- NES BLOOD_MODULE-3.7_UNDETERMINED [4, 13]: -2.014
- NES GLUTAMINE_STARVE_DOWN [4, 13]: -2.082
- NES HIF1ALPHA_1.5X_DOWN [4, 13]: -2.057
- NES MYC_CHIP_PET_EXPR_UP [4, 13]: -2.152
- NES MYC_OVEREXPRESSION_1.5X_UP [4, 13]: -2.439
- NES MYC_OVEREXPRESSION_2X_UP [4, 13]: -2.047
- NES MYELOMA_TACI_LOW_PLASMABLAST_GENE [4, 13]: -1.944
- NES NOTCH_T-ALL_UP_PALOMERO [4, 13]: -2.039
- NES PROLIFERATION_NODE1640 [4, 13]: -2.024
- NES RAPAMYCIN_BJAB_DOWN [4, 13]: -1.887
- NES BLOOD_MODULE-1.2_PLATELETS [4, 14]: 0.6607
- NES BLOOD_MODULE-3.2_INFLAMMATION-1 [4, 14]: 0.6587
- NES CNS_PNS_NODE1663 [4, 14]: 0.6849
- NES HIF1ALPHA_1.5X_UP [4, 14]: 0.6544
- NES HRAS_OVEREXPRESSION_4X_UP [4, 14]: 0.6606
- NES JAK2_DOWNREGULATED_PMBL [4, 14]: 0.6252
- NES KRAS_UP [4, 14]: 0.6774
- NES NORMAL_MESENCHYMAL-1_NODE1643 [4, 14]: 0.6887
- NES RETICULOCYTE_LARGE [4, 14]: 0.7092
- NES SERUM_RESPONSE_FB_DOWN [4, 14]: 0.6176
